The record followed here is patent publication US20250179059A1 (The Regents of the University of California, priority 2021, published 2025).

Molecules are shown by their SMILES.

Assay [1] has as its target T1, human BRD4 bromodomain II (Homo sapiens, UniProt O60885).
T1 construct: human BRD4 bromodomain II [based on Genbank NM_058243, residues 349-460]; host or cells: E. coli
Kind of assay: Bromodomain binding assay (AlphaScreen), BRD4 BDII. Particulars: AlphaScreen assay, Table C2; read-out: BRD4 BDII IC50. An outline of the steps: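 Inhibition of acetyl-H4 peptide binding to human BRD4 bromodomains is measured by bead-based proximity (AlphaScreen) in pH 7.5 HEPES buffer containing 0.05% CHAPS and 0.1% BSA. Ten compound concentrations in 3-fold steps give competitive binding IC50s.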
(In general: Alpha assays give light when donor and acceptor beads are brought close together.)

Assay [2] deals with human SKM-1 acute myeloid leukemia cells. Kind of assay: SKM-1 antiproliferation cell-based assay (ATPlite). Particulars: Homo sapiens, SKM-1, 96 h, SKM-1 antiproliferation assay, 4 days, Table C2. An outline of the steps: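 Log-phase cells in RPMI 1640/15% FBS were seeded at 34722 cells/mL and exposed for 4 days to nine-concentration DMSO serial dilutions in triplicate. Viability was read as ATP luminescence (ATPlite 1step), and IC50 values came from variable-slope non-linear regression.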
On the technique in general: ATP-based viability assays read luminescence as a measure of living cells.

By IC50 is commonly meant the concentration needed to halve the response being measured. The GI50 is the concentration at which growth is held to half of that of the control. Read a high GI50 as lower sensitivity of the cells. Take `O=c1[nH]c2ccc(-c3cc(F)cc(-c4ccnc(N5CCNCC5)c4)c3O)cc2[nH]1` [Example 431, 5-(5-fluoro-2-hydroxy-3-(2-(piperazin-1-yl)pyridin-4-yl)phenyl)-1H-benzo[d]imidazol-2(3H)-one]: in assay [1], the IC50 was greater than 100 nM. In addition, in assay [2], the GI50 was no less than 3000 nM.

In the case of `C[C@@H]1CN(c2cc(-c3cc(F)cc(-c4ccc(-n5ccn(C)c5=O)c(Cl)c4)c3O)cn(C)c2=O)CCN1` [Example 432, (R)-5-(3′-chloro-5-fluoro-2-hydroxy-4′-(3-methyl-2-oxo-2,3-dihydro-1H-imidazol-1-yl)-[1,1′-biphenyl]-3-yl)-1-methyl-3-(3-methylpiperazin-1-yl)pyridin-2(1H)-one], the half-inhibitory concentration (IC50) in assay [1] is 0.01 to 1 nM. In assay [2], the GI50 is 0.3 to 30 nM.

As for `CC(=O)Nc1cc(-c2cc(F)cc(-c3ccc(N4CCN(C)C4=O)c(Cl)c3)c2O)cc(N2CCNCC2)n1` [Example 433, N-(4-(3′-chloro-5-fluoro-2-hydroxy-4′-(3-methyl-2-oxoimidazolidin-1-yl)-[1,1′-biphenyl]-3-yl)-6-(piperazin-1-yl)pyridin-2-yl)acetamide], the IC50 in assay [1] fell in the range of 1 to 10 nM. In assay [2], this compound showed a 50% growth inhibitory concentration (GI50) of 0.3 to 30 nM.

Turning to `CC(C)Oc1cc(-c2cc(F)cc(-c3ccnc(N4CCNCC4)c3)c2O)cc(Cl)c1-n1ccn(C)c1=O` [Example 434, 1-(3-chloro-5′-fluoro-2′-hydroxy-5-isopropoxy-3′-(2-(piperazin-1-yl)pyridin-4-yl)-[1,1′-biphenyl]-4-yl)-3-methyl-1H-imidazol-2(3H)-one], the IC50 in assay [1] was 10 to 100 nM. The GI50 in assay [2] was in the range of 300 to 3000 nM.

Turning to `Cn1ccn(-c2c(F)cc(-c3cc(F)cc(-c4ccnc(N5CCNCC5)c4)c3O)cc2Cl)c1=O` [Example 436, 1-(3-chloro-5,5′-difluoro-2′-hydroxy-3′-(2-(piperazin-1-yl)pyridin-4-yl)-[1,1′-biphenyl]-4-yl)-^3-methyl-1H-imidazol-2(3H)-one], the half-maximal inhibitory concentration (IC50) in assay [1] fell in the range of 1 to 10 nM. The compound further yielded a GI50 in assay [2] of 30 to 300 nM.

For `Cn1cc(-c2cc(F)cc(-c3ccc(-n4ccn(C)c4=O)c(Cl)c3)c2O)cc(N2CCNCC2)c1=O` [Example 437, 5-(3′-chloro-5-fluoro-2-hydroxy-4′-(3-methyl-2-oxo-2,3-dihydro-1H-imidazol-1-yl)-[1,1′-biphenyl]-3-yl)-1-methyl-3-(piperazin-1-yl)pyridin-2(1H)-one], the IC50 in assay [1] lay within 1 to 10 nM. The GI50 in assay [2] was in the range of 0.3 to 30 nM.

Turning to `CN[C@H]1CCN(c2cc(-c3cc(F)cc(-c4ccc(N5CCN(C)C5=O)c(Cl)c4)c3O)ccn2)C1` [Example 438, (S)-1-(3-chloro-5′-fluoro-2′-hydroxy-3′-(2-(3-(methylamino)pyrrolidin-1-yl)pyridin-4-yl)-[1,1′-biphenyl]-4-yl)-3-methylimidazolidin-2-one], the half-maximal inhibitory concentration (IC50) in assay [1] lay in the range of 1 to 10 nM. In assay [2], the GI50 was in the range of 30 to 300 nM.

For the compound `Cn1ccn(-c2ccc(-c3cc(F)cc(-c4cc(NS(C)(=O)=O)nc(N5CCNCC5)c4)c3O)cc2Cl)c1=O` [Example 439, N-(4-(3′-chloro-5-fluoro-2-hydroxy-4′-(3-methyl-2-oxo-2,3-dihydro-1H-imidazol-1-yl)-[1,1′-biphenyl]-3-yl)-6-(piperazin-1-yl)pyridin-2-yl)methanesulfonamide], the IC50 in assay [1] lay in the range of 0.01 to 1 nM. Further, the GI50 in assay [2] was in the range of 30 to 300 nM.

For the compound `CN[C@H]1CCCN(c2cc(-c3cc(F)cc(-c4ccc(-n5ccn(C)c5=O)c(Cl)c4)c3O)ccn2)C1` [Example 440, (S)-1-(3-chloro-5′-fluoro-2′-hydroxy-3′-(2-(3-(methylamino)piperidin-1-yl)pyridin-4-yl)-[1,1′-biphenyl]-4-yl)-3-methyl-1H-imidazol-2(3H)-one], the IC50 in assay [1] is 0.01 to 1 nM. The same compound had a GI50 in assay [2] of 30 to 300 nM.

Take `CN1CCN(c2cc(-c3cc(F)cc(-c4ccc(N5CCN(C)C5=O)c(Cl)c4)c3O)ccn2)CC1` [Example 441, 1-(3-chloro-5′-fluoro-2′-hydroxy-3′-(2-(4-methylpiperazin-1-yl)pyridin-4-yl)-[1,1′-biphenyl]-4-yl)-3-methylimidazolidin-2-one]: the IC50 in assay [1] lay within 1 to 10 nM. The compound also showed a GI50 in assay [2] of 30 to 300 nM.

Regarding `CC(=O)Nc1cc(-c2cc(F)cc(-c3ccc(-n4ccn(C)c4=O)c(Cl)c3)c2O)cc(N2CCNCC2)n1` [Example 442, N-(4-(3′-chloro-5-fluoro-2-hydroxy-4′-(3-methyl-2-oxo-2,3-dihydro-1H-imidazol-1-yl)-[1,1′-biphenyl]-3-yl)-6-(piperazin-1-yl)pyridin-2-yl)acetamide], the 50% inhibitory concentration (IC50) in assay [1] was 0.01 to 1 nM. This compound also had a 50% growth inhibitory concentration (GI50) in assay [2] of 0.3 to 30 nM.

Regarding `CN1CCN(c2ccc(-c3cc(F)cc(-c4ccnc(N5CCNC(C(F)(F)F)C5)c4)c3O)cc2Cl)C1=O` (stereo not drawn) [Example 444, 1-(3-chloro-5′-fluoro-2′-hydroxy-3′-(2-(3-(trifluoromethyl)piperazin-1-yl)pyridin-4-yl)-[1,1′-biphenyl]-4-yl)-3-methylimidazolidin-2-one], the concentration for half-maximal inhibition (IC50) in assay [1] lay within 10 to 100 nM. The same compound registered a GI50 in assay [2] of 300 to 3000 nM.

Consider `Cn1ccn(-c2ccc(-c3cc(F)cc(-c4ccc(OC5CCNCC5)nc4)c3O)cc2Cl)c1=O` [Example 445, 1-(3-chloro-5′-fluoro-2′-hydroxy-3′-(6-(piperidin-4-yloxy)pyridin-3-yl)-[1,1′-biphenyl]-4-yl)-3-methyl-1H-imidazol-2(3H)-one], for which, in assay [1], the half-maximal inhibitory concentration (IC50) lay in the range of 1 to 10 nM. In assay [2], this compound had a GI50 of 300 to 3000 nM.

Consider `Cn1ccn(-c2c(Cl)cc(-c3cc(F)cc(-c4ccnc(N5CCNCC5)c4)c3O)cc2C#N)c1=O` [Example 448, 5-chloro-5′-fluoro-2′-hydroxy-4-(3-methyl-2-oxo-2,3-dihydro-1H-imidazol-1-yl)-3′-(2-(piperazin-1-yl)pyridin-4-yl)-[1,1′-biphenyl]-3-carbonitrile], for which, in assay [1], the IC50 fell in the range of 10 to 100 nM. Further, the concentration for 50% growth inhibition (GI50) in assay [2] lay in the range of 300 to 3000 nM.

Turning to `CN1CCN(c2ccc(-c3cc(F)cc(-c4ccnc(N5CCNCC5=O)c4)c3O)cc2Cl)C1=O` [Example 449, 1-(4-(3′-chloro-5-fluoro-2-hydroxy-4′-(3-methyl-2-oxoimidazolidin-1-yl)-[1,1′-biphenyl]-3-yl)pyridin-2-yl)piperazin-2-one], the concentration for half-maximal inhibition (IC50) in assay [1] was in the range of 1 to 10 nM. This compound yielded a GI50 in assay [2] of 300 to 3000 nM.

For `CN[C@H]1CCCN(c2cc(-c3cc(F)cc(-c4ccc(N5CCN(C)C5=O)c(Cl)c4)c3O)ccn2)C1` [Example 450], the IC50 in assay [1] was 1 to 10 nM. Also, the GI50 in assay [2] was in the range of 30 to 300 nM.

For `[2H]C([2H])([2H])n1ccn(-c2ccc(-c3cc(F)cc(-c4ccnc(N5CC[C@H](N)C5)c4)c3O)cc2Cl)c1=O` [Example 451, (S)-1-(3′-(2-(3-aminopyrrolidin-1-yl)pyridin-4-yl)-3-chloro-5′-fluoro-2′-hydroxy-[1,1′-biphenyl]-4-yl)-3-deuteromethyl-1H-imidazol-2(3H)-one], in assay [1], the IC50 was in the range of 0.01 to 1 nM. This compound registered a GI50 in assay [2] of 0.3 to 30 nM.

In the case of `[2H]C([2H])([2H])n1ccn(-c2ccc(-c3cc(F)cc(-c4ccnc(N5CCC[C@H](N)C5)c4)c3O)cc2Cl)c1=O` [Example 452, (S)-1-(3′-(2-(3-aminopiperidin-1-yl)pyridin-4-yl)-3-chloro-5′-fluoro-2′-hydroxy-[1,1′-biphenyl]-4-yl)-3-deuteromethyl-1H-imidazol-2(3H)-one], in assay [1], the IC50 was in the range of 0.01 to 1 nM. Further, in assay [2], the GI50 lay within 0.3 to 30 nM.

As to `[2H]C([2H])([2H])n1ccn(-c2ccc(-c3cc(F)cc(-c4ccnc(N5CCN[C@H](C)C5)c4)c3O)cc2Cl)c1=O` [Example 453, (R)-1-(3-chloro-5′-fluoro-2′-hydroxy-3′-(2-(3-methylpiperazin-1-yl)pyridin-4-yl)-[1,1′-biphenyl]-4-yl)-3-deuteromethyl-1H-imidazol-2(3H)-one], the IC50 in assay [1] fell in the range of 0.01 to 1 nM. Further, the GI50 in assay [2] was in the range of 0.3 to 30 nM.

Turning to `Cn1ccn(-c2ccc(-c3cc(F)cc(-c4ccnc(N5CCNC(C(F)(F)F)C5)c4)c3O)cc2Cl)c1=O` (stereo not drawn) [Example 454, 1-(3-chloro-5′-fluoro-2′-hydroxy-3′-(2-(3-(trifluoromethyl)piperazin-1-yl)pyridin-4-yl)-[1,1′-biphenyl]-4-yl)-3-methyl-1H-imidazol-2(3H)-one], the IC50 in assay [1] was in the range of 1 to 10 nM. This compound also had a GI50 in assay [2] of 300 to 3000 nM.

On to `Cn1ccn(-c2ccc(-c3cc(F)cc(-c4ccnc(N5CC6(CNC6)C5)c4)c3O)cc2Cl)c1=O` [Example 455, 1-(3′-(2-(2,6-diazaspiro[3.3]heptan-2-yl)pyridin-4-yl)-3-chloro-5′-fluoro-2′-hydroxy-[1,1′-biphenyl]-4-yl)-3-methyl-1H-imidazol-2(3H)-one], for which the 50% inhibitory concentration (IC50) in assay [1] was in the range of 1 to 10 nM. Moreover, the GI50 in assay [2] is 30 to 300 nM.

As to `[2H]C([2H])([2H])n1ccn(-c2ccc(-c3cc(F)cc(-c4ccnc(N5CCC[C@H](NC)C5)c4)c3O)cc2Cl)c1=O` [Example 456, (S)-1-(3-chloro-5′-fluoro-2′-hydroxy-3′-(2-(3-(methylamrno)piperidin-1-yl)pyridin-4-yl)-[1,1′-biphenyl]-4-yl)-3-deuteromethyl-1H-imidazol-2(3H)-one], in assay [1], the IC50 fell in the range of 0.01 to 1 nM. This compound registered a GI50 in assay [2] of 0.3 to 30 nM.

For the compound `CN(C)[C@H]1CCCN(c2cc(-c3cc(F)cc(-c4ccc(-n5ccn(C)c5=O)c(Cl)c4)c3O)ccn2)C1` [Example 457, (S)-1-(3-chloro-3′-(2-(3-(dimethylamino)piperidin-1-yl)pyridin-4-yl)-5′-fluoro-2′-hydroxy-[1,1′-biphenyl]-4-yl)-3-methyl-1H-imidazol-2(3H)-one], the half-maximal inhibitory concentration (IC50) in assay [1] was in the range of 1 to 10 nM. The compound further returned a concentration for 50% growth inhibition (GI50) in assay [2] of 0.3 to 30 nM.

`CN1CCN(c2ccc(-c3cc(F)cc(-c4cc(N5CCNCC5)c5cn[nH]c5c4)c3O)cc2Cl)C1=O` [Example 458, 1-(3-chloro-5′-fluoro-2′-hydroxy-3′-(4-(piperazin-1-yl)-1H-indazol-6-yl)-[1,1′-biphenyl]-4-yl)-3-methylimidazolidin-2-one]: the concentration for half-maximal inhibition (IC50) in assay [1] lay within 1 to 10 nM. In addition, in assay [2], the concentration for 50% growth inhibition (GI50) lay within 0.3 to 30 nM.
